By IC50 is commonly meant the concentration needed to halve the response being measured.

This is an account of results in patent US12358886B2, “Heterocyclic compounds for use in the treatment of cancer” (Artios Pharma Limited, priority 2019, dated 2025).

Like-named read-outs stand apart in the source and are kept apart here.

The target of the assay is Polθ protein (amino acids 2-2590) (Homo sapiens, UniProt O75417). Nature of the assay: Polθ full length enzyme potency assay (PicoGreen). The settings on record: full length N-His, C-term FLAG tagged Polθ, PicoGreen fluorescence, 12 point concentration response.
Sequence of Polθ protein (amino acids 2-2590) (O75417 2-2590): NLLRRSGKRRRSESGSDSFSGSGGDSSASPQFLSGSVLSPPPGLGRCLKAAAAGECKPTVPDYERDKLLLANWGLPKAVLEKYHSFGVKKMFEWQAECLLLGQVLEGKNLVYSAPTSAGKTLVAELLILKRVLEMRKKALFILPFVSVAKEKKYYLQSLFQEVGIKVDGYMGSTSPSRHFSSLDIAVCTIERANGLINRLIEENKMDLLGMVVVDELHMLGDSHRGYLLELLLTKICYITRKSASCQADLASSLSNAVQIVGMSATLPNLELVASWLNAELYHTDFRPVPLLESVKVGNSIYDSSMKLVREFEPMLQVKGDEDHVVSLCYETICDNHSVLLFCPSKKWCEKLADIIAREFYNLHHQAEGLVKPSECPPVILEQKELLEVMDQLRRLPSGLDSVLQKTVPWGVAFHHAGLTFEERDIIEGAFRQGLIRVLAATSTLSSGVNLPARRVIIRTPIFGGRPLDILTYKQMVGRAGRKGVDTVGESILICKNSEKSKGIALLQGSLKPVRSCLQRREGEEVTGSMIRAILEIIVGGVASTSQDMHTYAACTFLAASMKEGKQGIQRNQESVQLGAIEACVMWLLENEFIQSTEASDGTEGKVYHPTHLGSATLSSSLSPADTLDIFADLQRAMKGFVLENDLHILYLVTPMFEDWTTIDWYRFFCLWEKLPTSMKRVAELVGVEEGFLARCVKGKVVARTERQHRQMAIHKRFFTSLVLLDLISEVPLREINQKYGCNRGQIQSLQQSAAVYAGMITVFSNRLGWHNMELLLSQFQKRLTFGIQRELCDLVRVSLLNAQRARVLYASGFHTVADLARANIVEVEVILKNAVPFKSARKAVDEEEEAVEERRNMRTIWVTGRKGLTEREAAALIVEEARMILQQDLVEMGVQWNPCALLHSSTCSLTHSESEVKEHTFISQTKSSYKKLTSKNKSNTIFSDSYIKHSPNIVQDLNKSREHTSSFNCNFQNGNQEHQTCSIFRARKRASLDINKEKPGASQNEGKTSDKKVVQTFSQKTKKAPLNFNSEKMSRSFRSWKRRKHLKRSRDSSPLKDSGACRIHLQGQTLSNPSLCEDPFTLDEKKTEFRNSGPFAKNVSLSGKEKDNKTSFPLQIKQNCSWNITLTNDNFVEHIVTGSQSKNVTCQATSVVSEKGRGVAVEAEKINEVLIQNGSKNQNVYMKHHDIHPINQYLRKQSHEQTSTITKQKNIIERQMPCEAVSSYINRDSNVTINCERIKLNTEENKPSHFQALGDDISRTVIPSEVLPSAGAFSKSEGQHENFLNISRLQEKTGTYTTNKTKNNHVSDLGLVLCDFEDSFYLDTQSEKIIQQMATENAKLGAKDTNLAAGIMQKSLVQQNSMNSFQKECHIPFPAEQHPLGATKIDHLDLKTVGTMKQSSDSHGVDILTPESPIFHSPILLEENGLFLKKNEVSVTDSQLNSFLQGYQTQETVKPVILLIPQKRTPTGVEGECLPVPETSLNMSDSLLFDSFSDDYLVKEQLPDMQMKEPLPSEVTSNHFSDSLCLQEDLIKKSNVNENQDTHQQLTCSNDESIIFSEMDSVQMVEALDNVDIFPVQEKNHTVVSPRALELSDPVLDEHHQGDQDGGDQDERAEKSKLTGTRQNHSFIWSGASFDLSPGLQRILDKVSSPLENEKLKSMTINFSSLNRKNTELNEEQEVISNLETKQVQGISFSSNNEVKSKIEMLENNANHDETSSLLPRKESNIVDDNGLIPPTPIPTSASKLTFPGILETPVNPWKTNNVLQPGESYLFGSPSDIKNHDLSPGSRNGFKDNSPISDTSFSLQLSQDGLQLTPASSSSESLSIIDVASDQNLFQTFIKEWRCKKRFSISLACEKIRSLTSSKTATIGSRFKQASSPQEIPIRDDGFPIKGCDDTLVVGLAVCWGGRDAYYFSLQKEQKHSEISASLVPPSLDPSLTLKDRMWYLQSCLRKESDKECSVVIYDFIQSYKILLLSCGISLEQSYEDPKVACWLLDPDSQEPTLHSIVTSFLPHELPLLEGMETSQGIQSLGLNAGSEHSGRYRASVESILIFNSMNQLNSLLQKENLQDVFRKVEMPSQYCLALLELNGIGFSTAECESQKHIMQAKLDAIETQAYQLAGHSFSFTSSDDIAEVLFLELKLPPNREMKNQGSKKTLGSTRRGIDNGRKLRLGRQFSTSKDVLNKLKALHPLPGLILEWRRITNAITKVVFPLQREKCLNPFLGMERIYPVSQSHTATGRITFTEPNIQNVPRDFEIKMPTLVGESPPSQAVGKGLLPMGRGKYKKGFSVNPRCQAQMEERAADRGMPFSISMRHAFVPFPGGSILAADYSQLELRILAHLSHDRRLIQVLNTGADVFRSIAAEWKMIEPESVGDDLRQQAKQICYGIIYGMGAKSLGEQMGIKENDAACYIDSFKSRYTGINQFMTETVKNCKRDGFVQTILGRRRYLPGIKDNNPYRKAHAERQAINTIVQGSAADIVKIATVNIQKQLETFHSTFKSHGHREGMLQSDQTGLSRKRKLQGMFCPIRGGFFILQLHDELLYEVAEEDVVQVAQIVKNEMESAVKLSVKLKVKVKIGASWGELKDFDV

Description: Polθ Full Length Enzyme Potency Assay
PicoGreen assay was used to measure the ability of compounds to inhibit the activity of Polθ in vitro. […] DMSO concentration was maintained at 1% by back filling with DMSO solution. […] This was dispensed into each well of the compound plate using a VIAFLO 16 channel manual pipette (Integra) and pre-incubated at rt for 30 min. 3 μL of 2× working solution of dNTPs (40 μM) (dATP, dCTP, dGTP, dTTP; Sigma D6500, D4635, D4010, T0251) diluted in assay buffer was then added and the reaction incubated for 60 min at rt. The reaction was stopped by addition of 10 mM EDTA, 25 mM Tris pH 7.5 and 1:200 dilution of PicoGreen dye (Invitrogen P7581).

For `Cc1cc(C)c(C#N)c(N2C[C@@H](O)C[C@H]2C(=O)N(C)c2cccc(C(F)F)c2)n1` [Example 12, (2S,4S)-1-(3-Cyano-4,6-dimethylpyridin-2-yl)-N-(3-(difluoromethyl)phenyl)-4-hydroxy-N-methylpyrrolidine-2-carboxamide], under “Polθ IC50 (nM)”, the half-inhibitory concentration (IC50) was 710 nM.

`CCN(C(=O)[C@@H]1C[C@H](N[C@H]2CN(C(=O)OC(C)(C)C)C[C@H]2O)CN1c1cc(C(F)(F)F)cc(C)n1)c1ccc(F)c(F)c1` [Example 136, tert-Butyl (3S,4R)-3-(((3S,5S)-5-((3,4-difluorophenyl)(ethyl)carbamoyl)-1-(6-methyl-4-(trifluoromethyl)pyridin-2-yl)pyrrolidin-3-yl)amino)-4-hydroxypyrrolidine-1-carboxylate] returned a half-maximal inhibitory concentration (IC50) (Polθ IC50 (nM)) of 45 nM.

In turn, `Cc1cc(C(F)(F)F)cc(N2C(=O)N(CCN3CCS(=O)(=O)CC3)C[C@H]2C(=O)N(C)c2ccc(F)c(Cl)c2F)n1` [Example 208, (S)-N-(3-Chloro-2,4-difluorophenyl)-1-(2-(1,1-dioxidothiomorpholino)-ethyl)-N-methyl-3-(6-methyl-4-(trifluoromethyl)pyridin-2-yl)-2-oxoimidazolidine-4-carboxamide] had a half-inhibitory concentration (IC50) (Polθ IC50 (nM)) of 9 nM.

In the case of `Cc1cc(C(C)(C)C)cc(N2C(=O)OC[C@H]2C(=O)N(C)c2ccc(F)c(Cl)c2)n1` [Example 123, (S)-3-(4-(tert-Butyl)-6-methylpyridin-2-yl)-N-(3-chloro-4-fluorophenyl)-N-methyl-2-oxooxazolidine-4-carboxamide], the IC50 (Polθ IC50 (nM)) stood at 36 nM.

`Cc1cc(C(F)(F)F)cc(N2C(=O)[C@H](CN(C)C)C[C@@H]2C(=O)N(C)c2ccc(F)c(Cl)c2)n1` (stereo in doubt) [Example 78, (2R,4S)—N-(3-Chloro-4-fluorophenyl)-4-((dimethylamino)methyl)-N-methyl-1-(6-methyl-4-(trifluoromethyl)pyridin-2-yl)-5-oxopyrrolidine-2-carboxamide] gave a 50% inhibitory concentration (IC50) (Polθ IC50 (nM)) of 48 nM.

For `Cc1cc(C(F)(F)F)cc(N2C(=O)N(CCOS(N)(=O)=O)C[C@H]2C(=O)N(C)c2ccc(F)c(Cl)c2F)n1` [Example 227, (S)-2-(4-((3-Chloro-2,4-difluorophenyl)(methyl)carbamoyl)-3-(6-methyl-4-(trifluoromethyl)pyridin-2-yl)-2-oxoimidazolidin-1-yll sulfamate], the midpoint of inhibition (Polθ IC50 (nM)), the IC50, lay at 6 nM.

As to `CCN(C(=O)[C@@H]1C[C@H](N2CCOCC2)CN1c1nc(C)cc(C)c1C#N)c1cccc(C)c1` [Example 42, (2S,4S)-1-(3-Cyano-4,6-dimethylpyridin-2-yl)-N-ethyl-4-morpholino-N-(m-tolyl)pyrrolidine-2-carboxamide], 25 nM corresponded to half-maximal inhibition (Polθ IC50 (nM)) (IC50).

With `Cc1cc(C(F)(F)F)cc(N2C(=O)NC[C@H]2C(=O)N(C)c2ccc(F)c(Cl)c2)n1` [Example 156, (S)—N-(3-Chloro-4-fluorophenyl)-N-methyl-3-(6-methyl-4-(trifluoromethyl)pyridin-2-yl)-2-oxoimidazolidine-4-carboxamide], the IC50 (Polθ IC50 (nM)) turned out to be 4 nM.

`CCc1ccc(N(C)C(=O)[C@@H]2COC(=O)N2c2cc(C(F)(F)F)cc(C)n2)c(F)c1` [Example 112, (S)—N-(4-Ethyl-2-fluorophenyl)-N-methyl-3-(6-methyl-4-(trifluoromethyl)pyridin-2-yl)-2-oxooxazolidine-4-carboxamide]: it took 11 nM to reach half-maximal inhibition (Polθ IC50 (nM)) (IC50).

Where the note is “Polθ IC50 (nM)”, `Cc1cc(C(F)(F)F)cc(N2C(=O)OC[C@H]2C(=O)N(C)c2ccc(Cl)c(C)c2)n1` [Example 84, (S)—N-(4-Chloro-3-methylphenyl)-N-methyl-3-(6-methyl-4-(trifluoromethyl)pyridin-2-yl)-2-oxooxazolidine-4-carboxamide] returned an IC50 of 6 nM.

Turning to `CCN(C(=O)[C@@H]1C[C@@H](N)CN1c1nc(C)cc(C)c1C#N)c1cccc(C)c1` [Example 40, (2S,4R)-4-Amino-1-(3-cyano-4,6-dimethylpyridin-2-yl)-N-ethyl-N-(m-tolyl)pyrrolidine-2-carboxamide], the IC50 (Polθ IC50 (nM)) was 1760 nM.

Turning to `CCN(C(=O)[C@H]1C[C@@H](N(C)C)CN1c1nc(C)cc(C)c1C#N)c1cccc(C)c1` (stereo in doubt) [Example 39, (2R,4R)-1-(3-Cyano-4,6-dimethylpyridin-2-yl)-4-(dimethylamino)-N-ethyl-N-(m-tolyl)pyrrolidine-2-carboxamide], the half-inhibitory concentration (IC50) (Polθ IC50 (nM)) came to 27 nM.

Where the note is “Polθ IC50 (nM)”, `CCc1c(F)ccc(N(C)C(=O)[C@@H]2COC(=O)N2c2cc(C(F)(F)F)cc(C)n2)c1F` [Example 108, (S)—N-(3-Ethyl-2,4-difluorophenyl)-N-methyl-3-(6-methyl-4-(trifluoromethyl)pyridin-2-yl)-2-oxooxazolidine-4-carboxamide] had a concentration for half-maximal inhibition (IC50) of 12 nM.

`Cc1cc(C(F)(F)F)cc(N2C(=O)OC[C@H]2C(=O)N(C)c2ccc(C)c(O)c2)n1` [Example 105, (S)—N-(3-Hydroxy-4-methylphenyl)-N-methyl-3-(6-methyl-4-(trifluoromethyl)pyridin-2-yl)-2-oxooxazolidine-4-carboxamide] yielded a concentration for half-maximal inhibition (IC50) (Polθ IC50 (nM)) of 19 nM.

In turn, `Cc1cccc(N(C)C(=O)[C@@H]2[C@H](O)[C@H](O)CN2c2nc(C)cc(C(F)(F)F)c2C#N)c1` [Example 54, (2S,3S,4R)-1-(3-Cyano-6-methyl-4-(trifluoromethyl)pyridin-2-yl)-3,4-dihydroxy-N-methyl-N-(m-tolyl)pyrrolidine-2-carboxamide] came in with an IC50 (Polθ IC50 (nM)) of 13 nM.

The compound `CN(C(=O)[C@@H]1COC(=O)N1c1cc(OC(F)F)cc(Cl)n1)c1ccc(F)c(Cl)c1` [Example 120, (S)-3-(6-Chloro-4-(difluoromethoxy)pyridin-2-yl)-N-(3-chloro-4-fluorophenyl)-N-methyl-2-oxooxazolidine-4-carboxamide] yielded an IC50 (Polθ IC50 (nM)) of 94 nM.

On to `CCN(C(=O)[C@@H]1C[C@H](O)CN1c1nc(C)cc(C(F)(F)F)n1)c1ccc(F)c(Cl)c1` [Example 64, (2S,4S)—N-(3-Chloro-4-fluorophenyl)-N-ethyl-4-hydroxy-1-(4-methyl-6-(trifluoromethyl)-pyrimidin-2-yl)pyrrolidine-2-carboxamide], for which the 50% inhibitory concentration (IC50) (Polθ IC50 (nM)) came to 166 nM.

`CCN(C(=O)[C@@H]1COC(=O)N1c1cc(C(C)(F)F)cc(C)n1)c1ccc(F)c(Cl)c1` [Example 125, (S)—N-(3-Chloro-4-fluorophenyl)-3-(4-(1,1-difluoroethyl)-6-methylpyridin-2-yl)-N-ethyl-2-oxooxazolidine-4-carboxamide]: the half-maximal inhibitory concentration (IC50) (Polθ IC50 (nM)) came to 261 nM.

Regarding `CCc1cc(N2C[C@@H](O)C[C@H]2C(=O)N(C)c2cccc(C)c2)ncc1C` [Example 35, (2S,4S)-1-(4-Ethyl-5-methylpyridin-2-yl)-4-hydroxy-N-methyl-N-(m-tolyl)pyrrolidine-2-carboxamide], half-maximal inhibition (Polθ IC50 (nM)) (IC50) required 620 nM.

With `CCN(C(=O)[C@@H]1C[C@H](N[C@@H]2COCC[C@H]2O)CN1c1cc(C(F)(F)F)cc(C)n1)c1ccc(F)c(F)c1` [Example 132, (2S,4S)-N-(3,4-Difluorophenyl)-N-ethyl-4-(((3R,4R)-4-hydroxytetrahydro-2H-pyran-3-yl)amino)-1-(6-methyl-4-(trifluoromethyl)pyridin-2-yl)pyrrolidine-2-carboxamide], inhibition (Polθ IC50 (nM)) was half-maximal at 156 nM (IC50).

For the setting “Polθ IC50 (nM)”, `Cc1cc(C(F)(F)F)cc(N2C(=O)N(CCNS(C)(=O)=O)C[C@H]2C(=O)N(C)c2ccc(F)c(Cl)c2)n1` [Example 187, (S)—N-(3-Chloro-4-fluorophenyl)-N-methyl-3-(6-methyl-4-(trifluoromethyl)pyridin-2-yl)-1-(2-(methylsulfonamido)ethyl)-2-oxoimidazolidine-4-carboxamide] returned a 50% inhibitory concentration (IC50) of 22 nM.

For `Cc1cc(C(F)(F)F)cc(N2C(=O)N(CC(=O)N(C)C)C[C@H]2C(=O)N(C)c2ccc(F)c(Cl)c2)n1` [Example 185, (S)-N-(3-Chloro-4-fluorophenyl)-1-(2-(dimethylamino)-2-oxoethyl)-N-methyl-3-(6-methyl-4-(trifluoromethyl)pyridin-2-yl)-2-oxoimidazolidine-4-carboxamide], the IC50 (Polθ IC50 (nM)) came out at 10 nM.

For `Cc1cc(C(F)(F)F)cc(N2C(=O)OC[C@H]2C(=O)N(c2ccc(F)c(Cl)c2)C(C)C)n1` [Example 104, (S)-N-(3-Chloro-4-fluorophenyl)-N-isopropyl-3-(6-methyl-4-(trifluoromethyl)pyridin-2-yl)-2-oxooxazolidine-4-carboxamide], the 50% inhibitory concentration (IC50) (read-out: Polθ IC50) was 35 nM.

Take `Cc1cc(C(F)(F)F)cc(N2C(=O)N(CCN3CCC(F)(F)C3)C[C@H]2C(=O)N(C)c2ccc(F)c(Cl)c2F)n1` [Example 206, (S)-N-(3-Chloro-2,4-difluorophenyl)-1-(2-(3,3-difluoropyrrolidin-1-yl)ethyl)-N-methyl-3-(6-methyl-4-(trifluoromethyl)pyridin-2-yl)-2-oxoimidazolidine-4-carboxamide]: for the setting “Polθ IC50 (nM)”, the IC50 is 15 nM.

For the setting “Polθ IC50 (nM)”, `Cc1cccc(N(C)C(=O)[C@@H]2[C@H](O)CCN2c2nc(C)cc(C(F)(F)F)c2C#N)c1` [Example 24, (2S,3R)-1-(3-Cyano-6-methyl-4-(trifluoromethyl)pyridin-2-yl)-3-hydroxy-N-methyl-N-(m-tolyl)pyrrolidine-2-carboxamide] displayed a half-inhibitory concentration (IC50) of 9 nM.

In turn, `CCN(C(=O)[C@@H]1C[C@H](N[C@@H]2CCC[C@H]2O)CN1c1cc(C(F)(F)F)cc(C)n1)c1ccc(F)c(F)c1` [Example 133, (2S,4S)-N-(3,4-Difluorophenyl)-N-ethyl-4-(((1R,2R)-2-hydroxycyclopentyl)amino)-1-(6-methyl-4-(trifluoromethyl)pyridin-2-yl)pyrrolidine-2-carboxamide] had a concentration for half-maximal inhibition (IC50) (Polθ IC50 (nM)) of 122 nM.

Take `CCN(C(=O)[C@@H]1C[C@H](O)C(=O)N1c1cc(C(F)(F)F)cc(C)n1)c1ccc(F)c(Cl)c1` [Example 75, (2S,4S)—N-(3-Chloro-4-fluorophenyl)-N-ethyl-4-hydroxy-1-(6-methyl-4-(trifluoromethyl)pyridin-2-yl)-5-oxopyrrolidine-2-carboxamide]: the concentration for half-maximal inhibition (IC50) (read-out: Polθ IC50) worked out at 95 nM.

Where the note is “Polθ IC50 (nM)”, `Cc1cc(C(F)(F)F)cc(N2C(=O)OC[C@H]2C(=O)N(C)c2ccc(F)c(Br)c2)n1` [Example 93, (S)-N-(3-Bromo-4-fluorophenyl)-N-methyl-3-(6-methyl-4-(trifluoromethyl)pyridin-2-yl)-2-oxooxazolidine-4-carboxamide] showed an IC50 of 16 nM.
